US20250179047A1, “5-[7-(3,4-DIHYDRO-1H-ISOQUINOLINE-2-CARBONYL)-1,2,3,4 TETRAHYDROISOQUINOLIN-6-YL]-1H-PYRROLE-3-CARBOXAMIDE DERIVATIVES, PHARMACEUTICAL COMPOSITIONS CONTAINING THEM AND THEIR USES AS PRO-APOPTOTIC AGENTS” (LES LABORATOIRES SERVIER, priority 2022, published 2025)

Assays:
BCL2 G101V [1] = assay: TR-FRET competitive binding assay, BCL2 G101V; set-up: species or system human; conditions: ratio Ki BCL2 G101V / Ki BCL2 WT
Method in brief: (§1)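 Ki derived from IC50 (11-point dilution, 520/495 nm emission ratio) for displacing a fluorescein-labelled PUMA peptide (2 or 20 nM). Target was 0.5 nM E. coli-expressed Halo-tagged BCL2 (1-207) or BCLXL (2-196), terbium-labelled on Halo. Incubation 2 h at 23°C in pH 7.5 Hepes with 150 mM NaCl and 5% DMSO.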

BCL2 G101V [2] = molecular target: BCL2 G101V (Homo sapiens, UniProt P10415, G101V); assay: TR-FRET competitive binding assay, BCL2 G101V; conditions: BCL2 G101V; Ki determined from IC50; read-out: TR_FRET EKI_Bcl2 G101V
Method in brief: as §1

BCL2 F104I = BCL2 F104I (Homo sapiens, UniProt P10415, F104I); assay: TR-FRET competitive binding assay, BCL2 F104I; conditions: Ki determined from IC50, read-out: TR_FRET EKI_Bcl2 F104I
Method in brief: as §1

BCL2 D103Y = BCL2 D103Y (Homo sapiens, UniProt P10415, D103Y); assay: TR-FRET competitive binding assay, BCL2 D103Y; conditions: Ki determined from IC50, read-out: TR_FRET EKI_Bcl2 D103Y
Method in brief: as §1

BCLXL WT = BCLXL WT (Homo sapiens (Human), UniProt Q07817); assay: TR-FRET competitive binding assay, BCLXL WT; conditions: for Ki: BCLXL WT, Ki determined from IC50, read-out: TR_FRET EKI BclxL; for TR_FRET EKI BCLxL/WT selectivty ratio: ratio Ki BCLxL / Ki BCL2 WT
Sequence of BCLXL WT (Q07817 other isoform, or with tags, fused parts or gaps): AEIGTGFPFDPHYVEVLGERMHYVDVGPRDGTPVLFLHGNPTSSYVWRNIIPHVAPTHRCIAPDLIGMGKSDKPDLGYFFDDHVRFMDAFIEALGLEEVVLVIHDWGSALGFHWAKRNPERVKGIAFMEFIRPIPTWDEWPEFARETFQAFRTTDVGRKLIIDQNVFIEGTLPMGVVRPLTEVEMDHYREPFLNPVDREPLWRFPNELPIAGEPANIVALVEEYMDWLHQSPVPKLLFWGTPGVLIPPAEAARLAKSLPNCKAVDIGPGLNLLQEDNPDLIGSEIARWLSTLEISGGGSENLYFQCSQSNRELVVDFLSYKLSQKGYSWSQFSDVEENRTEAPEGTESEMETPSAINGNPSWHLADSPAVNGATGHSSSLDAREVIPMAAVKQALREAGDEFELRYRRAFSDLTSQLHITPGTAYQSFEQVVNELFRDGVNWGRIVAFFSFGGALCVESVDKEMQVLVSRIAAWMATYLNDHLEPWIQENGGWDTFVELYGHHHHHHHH
Method in brief: as §1

KMS-12-PE Bcl-2 WT = assay: In vitro cytotoxicity CellTiter-Glo 48 h, KMS-12-PE Bcl-2 WT; format: cell-based; conditions: Homo sapiens, KMS-12-PE, C50 = concentration needed to reach 50% of the cellular viability
Method in brief: (§2)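 Potency is expressed as C50, the compound concentration at which viability of engineered KMS-12-PE cells (Bcl-2 wild type or G101V) falls to 50%, determined from CellTiter-Glo luminescence after 48 h of treatment over 11 concentrations.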

CYP3A4 = CYP3A4 (Homo sapiens (Human), UniProt P08684); assay: CYP3A4 inhibition determination in hepatic human microsomes; format: in vitro ADME; conditions: LC/MS-MS of specific metabolite
Sequence of CYP3A4 (P08684 whole entry): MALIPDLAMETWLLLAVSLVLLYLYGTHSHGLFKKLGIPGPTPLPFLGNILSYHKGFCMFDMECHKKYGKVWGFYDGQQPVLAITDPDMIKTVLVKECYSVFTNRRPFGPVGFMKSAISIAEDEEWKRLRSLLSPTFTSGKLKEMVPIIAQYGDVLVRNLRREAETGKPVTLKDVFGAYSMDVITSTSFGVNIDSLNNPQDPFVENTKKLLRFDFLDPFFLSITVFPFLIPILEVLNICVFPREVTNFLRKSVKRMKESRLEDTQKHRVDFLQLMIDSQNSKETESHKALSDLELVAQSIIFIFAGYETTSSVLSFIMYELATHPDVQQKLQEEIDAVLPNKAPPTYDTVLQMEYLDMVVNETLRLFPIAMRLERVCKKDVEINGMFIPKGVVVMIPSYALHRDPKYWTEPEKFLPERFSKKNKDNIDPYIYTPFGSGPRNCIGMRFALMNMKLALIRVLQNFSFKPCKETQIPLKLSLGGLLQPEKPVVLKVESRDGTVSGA
Experimental: The inhibitory potential was determined on CYP3 Å4 enzyme using hepatic human microsomes. A range of concentrations (adapted based on the solubility) of the tested compound were incubated in presence of a substrate having a specific metabolite of CYP3 Å4 enzyme.
Then, the formation of the metabolite was quantified using LC/MS-MS analysis and a curve corresponding to the concentration of the metabolite in function of the concentration of the test compound allowed to the calculation of the IC50 value.

BCL2 D111A = BCL2 D111A (Homo sapiens, UniProt P10415, D111A); assay: TR-FRET competitive binding assay, BCL2 D111A; conditions: Ki determined from IC50, read-out: TR_FRET EKI_Bcl2 D111A
Method in brief: as §1

KMS-12-PE Bcl-2 G101V = assay: In vitro cytotoxicity CellTiter-Glo 48 h, KMS-12-PE Bcl-2 G101V; format: cell-based; conditions: for Ratio (G101V/WT): C50 KMS-12-PE Bcl-2 G101V over C50 KMS-12-PE Bcl-2 WT; for IC50: Homo sapiens, KMS-12-PE, 48 h, CellTiter-Glo, C50 = concentration needed to reach 50% of the cellular viability
Method in brief: as §2

BCL2 WT = BCL2 WT (Homo sapiens (Human), UniProt P10415); assay: TR-FRET competitive binding assay, BCL2 WT; conditions: Ki determined from IC50, read-out: TR_FRET EKI_Bcl2 WT
Method in brief: as §1

Compound: Cc1c(N(C(=O)c2cc(-c3cc4c(cc3C(=O)N3Cc5ccccc5C[C@H]3CN(C)C(C)C)CN(C(=O)Cc3ccc(OCCN5CCOCC5)cc3F)CC4)n(C)c2C)c2ccc(O)cc2)cc(C#N)n1C [Example 91, N-(5-cyano-1,2-dimethyl-1H-pyrrol-3-yl)-5-[2-(2-{2-fluoro-4-[2-(morpholin-4-yl)ethoxy]phenyl}acetyl)-7-[(3S)-3-{[methyl(propan-2-yl)amino]methyl}-1,2,3,4-tetrahydroisoquinoline-2-carbonyl]-1,2,3,4-tetrahydroisoquinolin-6-yl]-N-(4-hydroxyphenyl)-1,2-dimethyl-1H-pyrrole-3-carboxamide]
- TR_FRET EKI G101V/WT selectivty ratio (BCL2 G101V [1]): 6.8
- Ki (BCL2 G101V [2]): 0.3 nM
- Ki (BCL2 F104I): 0.25 nM
- Ki (BCL2 D103Y): 0.17 nM
- Ki (BCLXL WT): 2.4 nM
- TR_FRET EKI BCLxL/WT selectivty ratio (BCLXL WT): 60.0
- IC50 (KMS-12-PE Bcl-2 WT): 0.0084 µM
- IC50 (CYP3A4): 18000 nM
- Ki (BCL2 D111A): 0.08 nM
- Ratio (G101V/WT) (KMS-12-PE Bcl-2 G101V): 5.96
- IC50 (KMS-12-PE Bcl-2 G101V): 0.0498 µM
- Ki (BCL2 WT): 0.04 nM

Compound: Cc1c(C(=O)N(c2ccc(O)cc2)c2cc(C#N)n(C(F)F)c2C)cc(-c2cc3c(cc2C(=O)N2Cc4ccccc4C[C@H]2CN2CCCC2)CN(C(=O)Cc2ccc(OCCN4CCOCC4)cc2F)CC3)n1C [Example 110]
- TR_FRET EKI G101V/WT selectivty ratio (BCL2 G101V [1]): 6.3
- Ki (BCL2 G101V [2]): 0.3 nM
- Ki (BCL2 F104I): 0.15 nM
- Ki (BCL2 D103Y): 0.11 nM
- Ki (BCLXL WT): 4.1 nM
- TR_FRET EKI BCLxL/WT selectivty ratio (BCLXL WT): 102.5
- IC50 (KMS-12-PE Bcl-2 WT): 0.0102 µM
- IC50 (CYP3A4): > 5000 nM
- Ki (BCL2 D111A): 0.09 nM
- Ratio (G101V/WT) (KMS-12-PE Bcl-2 G101V): 5.02
- IC50 (KMS-12-PE Bcl-2 G101V): 0.0512 µM
- Ki (BCL2 WT): 0.04 nM
